Measurements: patent US7935724B2, “Thiophene and benzothiophene hydroxamic acid derivatives” (Merck HDAC Research, LLC, priority 2003, dated 2011)
Like-named read-outs stand apart in the source and are kept apart here.

Legend:
[1] = target: T1, histone deacetylase, subtype 1 (HDAC1) (Homo sapiens, UniProt Q13547); assay: HDAC1-Flag assay (in vitro deacetylation assay); type: biochemical; conditions: concentration for 50% inhibition of deacetylation, substrate at Km, unit inferred, text gives nm, read-out: HDAC Inhibition
T1 construct: Flag; made in house
Experimental: Novel compounds were tested for their ability to inhibit histone deacetylase, subtype 1 (HDAC1) using an in vitro deacetylation assay. The enzyme source for this assay was an epitope-tagged human HDAC1 complex immuno-purified from stably expressing mammalian cells. The substrate consisted of a commercial product containing an acetylated lysine side chain (BIOMOL Research Laboratories, Inc., Plymouth Meeting, Pa.). Upon deacetylation of the substrate by incubation with the purified HDAC1 complex, a fluorophore is produced that is directly proportional to the level of deacetylation.

[2] = tested on: murine erythroleukemia cell line SC9; assay: MTS assay (Cell Titer 96 Aqueous One Solution Cell Proliferation Assay); type: cell-based; conditions: unit inferred, unit nm
Experimental: The novel compounds of the present invention were tested for their ability to inhibit proliferation of the murine erythroleukemia cell line SC9.
The MTS assay, also referred to as the Cell Titer 96 Aqueous One Solution Cell Proliferation Assay, is a calorimetric method for determining the number of viable cells in proliferation, cytotoxicity or chemosensitivity assays. The MTS reagent contains a novel tetrazolium compound [3-(4,5-dimethylthiazol-2-yl)-5-(3-carboxymethoxyphenyl)-2-(4-sulfophenyl)-2H-tetrazolium, inner salt] and electron coupling reagent (phenazine ethosulfate;PES). Murine erythroleukemia cells (SC-9) were incubated with vehicle or increasing concentrations of compound for 48 hours. Cell proliferation was quantitated by adding a small amount of the MTS reagent directly to culture wells, incubating for 1-4 hours and then recording the absorbance at 490 nm with a 96-well plate reader. The quantity of formazan product, as measured by […] absorbance, is directly proportional to the number of living cells in culture.

[3] = Table 1, benzothiophene backbone
[4] = Mus musculus, SC9, 48 h, Table 3, concentration inhibiting proliferation of SC9 cells
[5] = Table 3, concentration inhibiting proliferation of SC9 cells, 48 hours

T1 sequence (Q13547 whole entry): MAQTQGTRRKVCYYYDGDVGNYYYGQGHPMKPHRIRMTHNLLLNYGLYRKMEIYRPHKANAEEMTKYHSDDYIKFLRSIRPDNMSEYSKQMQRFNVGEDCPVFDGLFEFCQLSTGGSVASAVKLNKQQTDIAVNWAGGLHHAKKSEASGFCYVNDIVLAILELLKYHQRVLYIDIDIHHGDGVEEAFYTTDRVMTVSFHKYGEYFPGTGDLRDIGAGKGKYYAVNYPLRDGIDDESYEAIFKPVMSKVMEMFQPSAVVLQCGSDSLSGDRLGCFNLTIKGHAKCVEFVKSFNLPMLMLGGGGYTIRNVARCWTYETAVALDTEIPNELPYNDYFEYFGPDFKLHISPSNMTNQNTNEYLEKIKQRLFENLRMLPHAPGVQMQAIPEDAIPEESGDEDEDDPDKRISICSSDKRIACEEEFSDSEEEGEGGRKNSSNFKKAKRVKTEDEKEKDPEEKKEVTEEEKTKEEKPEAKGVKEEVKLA

| SMILES | IC50 [1, 3] [nM] | IC50 [2, 4] [nM] | IC50 ([1]; Table 2, thiophene backbone) [nM] | IC50 [2, 5] [nM] |
| --- | --- | --- | --- | --- |
| O=C(NO)c1cc2ccc(NC(=O)c3cccc4ccccc34)cc2s1 [Compound 33] | 79 ± 11.3 | 785 | – | – |
| O=C(Nc1ccc2sc(C(=O)NO)cc2c1)OCc1ccccc1 [Compound 36] | 119 | 717 | – | – |
| O=C(NO)c1cc2cc(NC(=O)C(c3ccccc3)c3ccccc3)ccc2s1 [Compound 39] | 189 ± 4.9 | 666 | – | – |
| O=C(Cc1ccccc1)Nc1ccc(C(=O)NO)s1 [Compound 59] | – | 642 | 63.5 ± 7.7 | – |
| CCC(C(=O)Nc1ccc2sc(C(=O)NO)cc2c1)c1ccccc1 (stereo not shown) [Compound 86] | 92.5 ± 23.3 | 836 ± 28.9 | – | – |
| O=C(Cc1ccc(Cl)cc1)Nc1ccc2cc(C(=O)NO)sc2c1 [Compound 88] | 19 ± 5.6 | 238 | – | – |
| COc1ccc(CC(=O)Nc2ccc3cc(C(=O)NO)sc3c2)cc1 [Compound 89] | 19.5 ± 0.7 | 205 ± 37.5 | – | – |
| O=C(CN1CCC(Cc2ccccc2)CC1)Nc1ccc2cc(C(=O)NO)sc2c1 [Compound 90] | 99.5 ± 37.4 | 704 ± 96.1 | – | – |
| O=C(CN1CCN(C(=O)OCc2ccccc2)CC1)Nc1ccc2cc(C(=O)NO)sc2c1 [Compound 91] | 178 ± 55.8 | 899 | – | – |
| O=C(CN(Cc1ccccc1)Cc1ccccc1)Nc1ccc2cc(C(=O)NO)sc2c1 [Compound 93] | 316 ± 56.5 | 751 | – | – |
| CCC(C(=O)Nc1ccc2cc(C(=O)NO)sc2c1)c1ccccc1 (stereo not shown) [Compound 98] | 41.5 ± 2.1 | – | – | 225 ± 26.7 |
| O=C(NO)c1cc2cc(CNCc3ccccc3)ccc2s1 [Compound 99] | 144 ± 53 | 474 ± 65.7 | – | – |
| COc1cccc(N2CCN(CC(=O)Nc3ccc4cc(C(=O)NO)sc4c3)CC2)c1 [Compound 100] | 45 ± 5.6 | 519 ± 65.7 | – | – |
| O=C(CN1CCN(c2ncccn2)CC1)Nc1ccc2cc(C(=O)NO)sc2c1 [Compound 101] | 59 ± 7 | 830 ± 393 | – | – |
| CN(C(=O)Cc1ccccc1)c1ccc2cc(C(=O)NO)sc2c1 [Compound 106] | 74.5 ± 17.6 | 537 ± 124 | – | – |
| COc1ccccc1N1CCN(CC(=O)Nc2ccc3cc(C(=O)NO)sc3c2)CC1 [Compound 107] | 79 ± 5.6 | 309 | – | – |
| O=C(CN1CCN(c2ccccn2)CC1)Nc1ccc2cc(C(=O)NO)sc2c1 [Compound 108] | 50 ± 11.3 | 442 | – | – |
| O=C(Cc1cccnc1)Nc1ccc2cc(C(=O)NO)sc2c1 [Compound 110] | 61 ± 15.5 | 833 ± 65 | – | – |
| O=C(CN1CCCCC1)Nc1ccc2cc(C(=O)NO)sc2c1 [Compound 115] | 38 | 306 ± 78.5 | – | – |
| O=C(CN1CCN(c2ccccc2Cl)CC1)Nc1ccc2cc(C(=O)NO)sc2c1 [Compound 119] | 36.6 ± 13.2 | 568 ± 227 | – | – |
| CC(C(=O)Nc1ccc2cc(C(=O)NO)sc2c1)c1ccccc1 (stereo not shown) [Compound 123] | 18 ± 5.6 | 206 ± 79.2 | – | – |
| O=C(NO)c1cc2ccc(NC(=O)C3(c4ccccc4)CC3)cc2s1 [Compound 126] | 125 ± 5.6 | 836 | – | – |

| SMILES | IC50 [1, 3] [nM] | IC50 [2, 4] [nM] | IC50 ([1]; Table 2, thiophene backbone) [nM] | IC50 [2, 5] [nM] |
| --- | --- | --- | --- | --- |
| O=C(NO)c1cc2ccc(NC(=O)C3(c4ccc(Cl)cc4)CCC3)cc2s1 [Compound 127] | 115 ± 9.8 | 935 | – | – |
| O=C(NO)c1cc2cc(CNCc3ccccn3)ccc2s1 [Compound 142] | 258 ± 17 | 714 | – | – |
| O=C(NO)c1cc2cc(CNCCc3c[nH]c4ccccc34)ccc2s1 [Compound 145] | 151 ± 28.2 | 990 | – | – |
| O=C(NO)c1cc2cc(CNC3CCN(Cc4ccccc4)CC3)ccc2s1 [Compound 146] | 524 ± 102 | 891 | – | – |
| COc1ccccc1CNCc1ccc2sc(C(=O)NO)cc2c1 [Compound 147] | 75.5 ± 7.7 | 201 ± 59.3 | – | – |
| COc1cccc(CNCc2ccc3sc(C(=O)NO)cc3c2)c1 [Compound 148] | 100 ± 12.7 | 430 ± 132 | – | – |
| O=C(NO)c1cc2cc(CNCCc3ccccc3)ccc2s1 [Compound 151] | 203 ± 14.8 | 947 | – | – |
| O=C(NO)c1cc2cc(CNCc3ccc(Cl)cc3)ccc2s1 [Compound 153] | 124 ± 24 | 531 | – | – |
| O=C(NO)c1cc2cc(CNCCCc3ccccc3)ccc2s1 [Compound 154] | 163 ± 37.4 | 637 | – | – |
| O=C(NO)c1cc2cc(CNCCC(c3ccccc3)c3ccccc3)ccc2s1 [Compound 155] | 967 ± 215 | 390 | – | – |
| O=C(NO)c1cc2cc(CNCCCCc3ccccc3)ccc2s1 [Compound 156] | 275 ± 34.6 | 966 | – | – |
| COc1ccc(CNCc2ccc3sc(C(=O)NO)cc3c2)cc1 [Compound 162] | 110 ± 14.1 | 587 | – | – |
| O=C(NO)c1cc2cc(CNCC3CCCCC3)ccc2s1 [Compound 164] | 207 ± 38.1 | 545 ± 24 | – | – |
| O=C(CN(CC(=O)Nc1ccccc1)c1ccc2sc(C(=O)NO)cc2c1)Nc1ccccc1 [Compound 177] | 57.3 ± 18.5 | 259 ± 48.7 | – | – |
| O=C(CN(CC(=O)Nc1ccccc1)c1ccc2cc(C(=O)NO)sc2c1)Nc1ccccc1 [Compound 178] | 6.5 ± 0.7 | 200 ± 19.7 | – | – |
| CCC(C(=O)Nc1ccc2cc(C(=O)NO)sc2c1)c1ccccc1 (stereo not shown) [Compound 180] | 18.5 ± 2.1 | – | – | 140 |
| CCC(C(=O)Nc1ccc2cc(C(=O)NO)sc2c1)c1ccccc1 (stereo not shown) [Compound 181] | 59.5 ± 3.5 | – | – | 528 |
| COc1ccccc1CNCc1ccc2cc(C(=O)NO)sc2c1 [Compound 185] | 48.5 ± 6.3 | 90 | – | – |
| COc1cccc(CNCc2ccc3cc(C(=O)NO)sc3c2)c1 [Compound 186] | 55.5 ± 9.1 | 93 | – | – |
| COc1ccc(CNCc2ccc3cc(C(=O)NO)sc3c2)cc1 [Compound 187] | 23 ± 1.4 | 56 | – | – |
| O=C(NO)c1cc2ccc(CNCCc3c[nH]c4ccccc34)cc2s1 [Compound 188] | 82.5 ± 16.2 | 191 | – | – |
| CC(C)(C(=O)Nc1ccc2cc(C(=O)NO)sc2c1)c1ccccc1 [Compound 189] | 72 ± 14.1 | 493 | – | – |
